Laboratory results from ChEMBL document CHEMBL6078710, “Design, synthesis and biological evaluation of new SIRT3 activators for the treatment of triple-negative breast cancer” (Bioorg Med Chem, 2025).

How the values were obtained:
MDA-MB-231 = assay: Antiproliferative activity against human MDA-MB-231 cells assessed as inhibition of cell proliferation by MTT assay
BT-549 = assay: Antiproliferative activity against human BT-549 cells assessed as inhibition of cell proliferation by MTT assay
[1] = molecular target: T1, NAD-dependent protein deacetylase sirtuin-3, mitochondrial (Homo sapiens, UniProt Q9NTG7); assay: Activation of SIRT3 (unknown origin)
T1 sequence (Q9NTG7 whole entry): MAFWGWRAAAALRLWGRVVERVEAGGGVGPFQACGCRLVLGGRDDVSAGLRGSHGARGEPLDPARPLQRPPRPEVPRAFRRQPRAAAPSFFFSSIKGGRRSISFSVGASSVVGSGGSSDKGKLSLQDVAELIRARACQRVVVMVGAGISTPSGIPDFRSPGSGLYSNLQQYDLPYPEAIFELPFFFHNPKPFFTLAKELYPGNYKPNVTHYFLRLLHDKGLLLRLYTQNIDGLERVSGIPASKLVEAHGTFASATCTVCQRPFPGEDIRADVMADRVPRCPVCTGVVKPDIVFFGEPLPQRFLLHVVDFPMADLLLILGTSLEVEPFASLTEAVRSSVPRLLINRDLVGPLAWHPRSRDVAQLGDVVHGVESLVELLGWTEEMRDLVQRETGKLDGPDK

Work on `CCOC(=O)C1=CN(C(=O)c2ccc(OC)c(OC)c2)C=C(C(=O)OCC)C1c1ccc(S(C)(=O)=O)cc1` yielded an IC50 (MDA-MB-231) of 15.2 µM and an IC50 (BT-549) of 11.9 µM.

`CCOC(=O)C1=CN(C(=O)c2cc(OC)c(OC)c(OC)c2)C=C(C(=O)OCC)C1c1ccccc1` was tested, and the IC50 (MDA-MB-231) was 5.23 µM and the IC50 (BT-549) was 4.79 µM.

`CCOC(=O)C1=CN(C(=O)c2cc(OC)c(OC)c(OC)c2)C=C(C(=O)OCC)C1c1ccc(S(C)(=O)=O)cc1` was tested, and the IC50 (MDA-MB-231) was 14.2 µM and the IC50 (BT-549) was 8.21 µM.

`CC(C)C[C@@H]1NC(=O)CCN2C(=O)CC3(CC(C)(C)C(=O)N3S(=O)(=O)c3cccc(c3)C(=O)OCCOC(=O)[C@H](Cc3ccccc3)NC1=O)C2=O` (some centres undefined) showed an EC50 [1] of 29.4 µM.

Work on `CCOC(=O)C1=CN(C(=O)c2cc(OC)c(OC)c(OC)c2)C=C(C(=O)OCC)C1c1cnc(Cl)c(Cl)c1` yielded an IC50 (MDA-MB-231) of 5.78 µM and an IC50 (BT-549) of 2.77 µM.
